Reference: patent publication US20230348426A1, “OXOPYRROLIDINE FPR2 AGONISTS” (Bristol-Myers Squibb Company, priority 2020, published 2023)

Columns and labels:
human FPR2 = human FPR2 (Homo sapiens (Human), UniProt P25090); experiment: FPR2 cyclic adenosine monophosphate (cAMP) assay; format: cell-based; details: CHO cells overexpressing human FPR2; forskolin 5 µM; inhibition of cAMP production; read-out: hFPR2 cAMP2 EC50
In short: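 Inhibition of forskolin-driven (5 µM) cAMP, with 200 µM IBMX, measured in human FPR2-expressing CHO cells, 2,000 per well, 30 min at room temperature; compounds tested 0.020 nM to 100 µM in 1% DMSO. HTRF 665/590 ratio converted to cAMP via calibration curve, then 4-parameter fit.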

human FPR1 = human FPR1 (Homo sapiens (Human), UniProt P21462); experiment: FPR1 cyclic adenosine monophosphate (cAMP) assay; format: cell-based; details: CHO cells overexpressing human FPR1; forskolin 10 µM; inhibition of cAMP production; read-out: hFPR1 cAMP EC50
human FPR1, sequence (P21462 whole entry): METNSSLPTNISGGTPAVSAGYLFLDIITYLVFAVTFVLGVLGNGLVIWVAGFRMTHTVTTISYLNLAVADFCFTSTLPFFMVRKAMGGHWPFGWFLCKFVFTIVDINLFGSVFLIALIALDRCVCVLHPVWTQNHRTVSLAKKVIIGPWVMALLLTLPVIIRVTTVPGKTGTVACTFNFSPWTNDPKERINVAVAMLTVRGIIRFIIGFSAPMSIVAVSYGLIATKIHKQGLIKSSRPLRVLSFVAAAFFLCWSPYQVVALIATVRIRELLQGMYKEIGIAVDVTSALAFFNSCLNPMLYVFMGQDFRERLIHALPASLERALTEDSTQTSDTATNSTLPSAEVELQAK
In short: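 Human FPR1-expressing CHO cells were used at 4,000 per well, with compound at 0.020 nM–100 µM in 1% DMSO. Potency came from a 4-parameter logistic fit.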

human FPR2, sequence (P25090 whole entry): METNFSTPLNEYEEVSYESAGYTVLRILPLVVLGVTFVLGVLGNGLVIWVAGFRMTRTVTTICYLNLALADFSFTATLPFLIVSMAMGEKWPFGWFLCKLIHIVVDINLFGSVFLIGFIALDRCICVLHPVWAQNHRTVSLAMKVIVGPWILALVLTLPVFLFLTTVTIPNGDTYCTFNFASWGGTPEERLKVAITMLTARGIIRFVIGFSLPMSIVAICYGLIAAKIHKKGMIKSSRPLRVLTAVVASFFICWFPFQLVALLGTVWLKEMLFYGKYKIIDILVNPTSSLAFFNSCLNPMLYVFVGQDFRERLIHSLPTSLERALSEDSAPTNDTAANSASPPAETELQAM

SMILES | EC50 (human FPR2) [nM] | EC50 (human FPR1) [nM]
COc1cc(F)c([C@@H]2CN(c3c(C)ccn(CC(OC)C(F)(F)F)c3=O)C(=O)[C@H]2NC(=O)c2ccc(OC(F)(F)F)cc2)c(F)c1 (some centres unmarked) [Example 297] | 9 | 0.1
COc1cc(F)c([C@@H]2CN(c3cccc(N4C[C@@H](C)N(C)[C@@H](C)C4)n3)C(=O)[C@@H]2NC(=O)c2ccc(OC(F)F)cc2)c(F)c1 [Example 213] | 5.6 | 1800
COc1cc(F)c([C@@H]2CN(c3cnn4c3OCCC4)C(=O)[C@H]2NC(=O)c2ccc(OC(F)(F)F)cc2)c(F)c1 [Example 598] | 6.2 | 590
COc1cc(F)c([C@@H]2CN(c3cccn(CC(O)CO)c3=O)C(=O)[C@H]2NC(=O)c2ccc(OC(F)F)cc2)c(F)c1 (some centres unmarked) [Example 678] | 11 | 92
COc1cc(F)c([C@@H]2CN(c3c(C)c4c(n(CCO)c3=O)CCC4)C(=O)[C@H]2NC(=O)c2ccc(OC(F)(F)F)cc2)c(F)c1 [Example 592] | 7.1 | 6.2
COc1cc(F)c([C@@H]2CN(c3ncccc3C#N)C(=O)[C@H]2NC(=O)c2ccc(OC(F)(F)F)cc2)c(F)c1 [Example 15] | 22 | 1100
COc1cc(F)c([C@@H]2CN(c3c(C)ccn(C4CCOC4)c3=O)C(=O)[C@H]2NC(=O)c2ccc(OC(F)F)cc2)c(F)c1 (some centres unmarked) [Example 479] | 9.4 | 5
O=C(N[C@@H]1C(=O)N(c2cccn(CC(F)F)c2=O)C[C@H]1c1ccc(Cl)cc1)c1ccc(OC(F)F)cc1 [Example 236] | 6.5 | 30
COc1cc(F)c([C@@H]2CN(c3nccc(N4CCN(C)CC4)c3C(F)(F)F)C(=O)[C@H]2NC(=O)c2ccc(OC(F)F)cc2)c(F)c1 [Example 279] | 8.1 | 5800
COc1cc(F)c([C@@H]2CN(c3ccc(C(=O)O)n(CCO)c3=O)C(=O)[C@H]2NC(=O)c2ccc(OC(F)(F)F)cc2)c(F)c1 [Example 703] | 57 | 99
COc1cc(F)c([C@@H]2CN(c3cc(NC(C)=O)cn(C)c3=O)C(=O)[C@H]2NC(=O)c2ccc(Cl)cc2)c(F)c1 [Example 299] | 9.2 | 1900
COc1cc(F)c([C@@H]2CN(c3cccnc3C#N)C(=O)[C@H]2NC(=O)c2ccc(OC(F)(F)F)cc2)c(F)c1 [Example 21] | 35 | 2300
COc1cc(F)c([C@@H]2CN(c3nc(N4C[C@@H](C)N(C)[C@@H](C)C4)ccc3C3CC3)C(=O)[C@H]2NC(=O)c2ccc(OC(F)F)cc2)c(F)c1 [Example 348] | 111 | 1400
COc1ccc([C@@H]2CN(c3c(C)ccn(CC4CCOCC4)c3=O)C(=O)[C@H]2NC(=O)c2ccc(OC(F)F)cc2)cc1 [Example 699] | 6.6 | 3
COCC(CO)n1cccc(N2C(=O)[C@@H](NC(=O)c3ccc(OC(F)F)cc3)[C@H](c3c(F)cc(OC)cc3F)[C@@H]2C)c1=O (some centres unmarked) [Example 217] | 5.7 | 42
COc1cc(F)c([C@@H]2CN(c3c(C)ccn(CC4CCO4)c3=O)C(=O)[C@H]2NC(=O)c2ccc(OC(F)F)cc2)c(F)c1 (some centres unmarked) [Example 616] | 9.4 | 20
COc1cc(F)c([C@@H]2CN(c3cccn(CC(C)(C)O)c3=O)C(=O)[C@H]2NC(=O)c2ccc(OC(F)F)cc2)c(F)c1 [Example 308] | 9.9 | 180
COc1cc(F)c([C@@H]2CN(c3cccn(CC(O)CO)c3=O)C(=O)[C@H]2NC(=O)c2ccc(OC(F)(F)F)cc2)c(F)c1 (some centres unmarked) [Example 669] | 11 | 270
COc1cc(F)c([C@@H]2CN(c3cccnc3OCCO)C(=O)[C@H]2NC(=O)c2ccc(OC(F)(F)F)cc2)c(F)c1 [Example 396] | 9.5 | 39
COc1cc(F)c([C@@H]2CN(c3cccn(CCF)c3=O)C(=O)[C@H]2NC(=O)c2ccc(OC(F)(F)F)cc2)c(F)c1 [Example 221] | 6 | 50

Stronger by EC50 (human FPR2), values ahead:

EC50 (human FPR2) [nM] | EC50 (human FPR1) [nM] | SMILES
3.8 | 2.8 | COc1ccc([C@@H]2CN(c3ccnn(CC(F)F)c3=O)C(=O)[C@H]2NC(=O)c2ccc(OC(F)(F)F)cc2)cc1 [Example 692]
0.9 | 0.6 | COc1cc(F)c([C@@H]2CN(c3c(C)ccn(C4CCOC4)c3=O)C(=O)[C@H]2NC(=O)c2ccc(OC(F)(F)F)cc2)c(F)c1 (some centres unmarked) [Example 350]
3.7 | 8.2 | COc1cc(F)c([C@@H]2CN(c3cccn(CC(F)F)c3=O)C(=O)[C@H]2NC(=O)c2ccc(OC(F)F)cc2)c(F)c1 [Example 145]
1.6 | 3 | COc1ccc([C@@H]2CN(c3c(C)ccn(CCO)c3=O)C(=O)[C@H]2NC(=O)c2ccc(OC(F)(F)F)cc2)c(F)c1 [Example 375]
3.3 | 380 | COc1cc(F)c([C@@H]2CN(c3nccc(NCC(C)O)c3C(F)(F)F)C(=O)[C@H]2NC(=O)c2ccc(OC(F)F)cc2)c(F)c1 (some centres unmarked) [Example 129]
4.1 | 9.4 | COCCn1cccc(N2C[C@@H](c3ccc(Cl)cc3)[C@H](NC(=O)c3ccc(OC(F)F)cc3)C2=O)c1=O [Example 162]
2.3 | 120 | COc1cc(F)c([C@@H]2CN(c3nc(NC4CCOC4)ccc3F)C(=O)[C@H]2NC(=O)c2ccc(OC(F)(F)F)cc2)c(F)c1 (some centres unmarked) [Example 84]
5.1 | 0.8 | COc1ccc([C@@H]2CN(c3c(C)ccn(CC4CC4)c3=O)C(=O)[C@H]2NC(=O)c2ccc(OC(F)F)cc2)c(F)c1 [Example 192]
2.9 | 14 | COc1cc(F)c([C@@H]2CN(c3cccn(CC(O)C(F)(F)F)c3=O)C(=O)[C@H]2NC(=O)c2ccc(OC(F)F)cc2)c(F)c1 (single isomer, unassigned) [Example 5]
5.3 | 62 | COc1cc(F)c([C@@H]2CN(c3cccnc3OCCN3CC4(COC4)C3)C(=O)[C@H]2NC(=O)c2ccc(OC(F)F)cc2)c(F)c1 [Example 202]
0.6 | 3.9 | COCC(CO)n1cccc(N2C[C@@H](c3ccc(OC)cc3F)[C@H](NC(=O)c3ccc(OC(F)(F)F)cc3)C2=O)c1=O (some centres unmarked) [Example 705]
1.2 | 1500 | COc1cc(F)c([C@@H]2CN(c3cc(C)cc(N4C[C@@H]5C[C@H]4CN5C)n3)C(=O)[C@H]2NC(=O)c2ccc(OC(F)F)cc2)c(F)c1 [Example 570]
1.7 | 14 | COCC(CO)n1nccc(N2C[C@@H](c3c(F)cc(OC)cc3F)[C@H](NC(=O)c3ccc(OC(F)F)cc3)C2=O)c1=O (some centres unmarked) [Example 476]
4.9 | 38 | COc1cc(F)c([C@@H]2CN(c3cccn(C(F)F)c3=O)C(=O)[C@H]2NC(=O)c2ccc(OC(F)(F)F)cc2)c(F)c1 [Example 188]
0.6 | 110 | COCC(CN)n1cccc(N2C[C@@H](c3c(F)cc(OC)cc3F)[C@H](NC(=O)c3ccc(OC(F)F)cc3)C2=O)c1=O (some centres unmarked) [Example 41]
1.9 | 94 | COCCn1cccc(N2C(=O)[C@@H](NC(=O)c3ccc(Cl)cc3)[C@H](c3c(F)cc(OC)cc3F)[C@@H]2C)c1=O [Example 74]
1.4 | 3600 | COc1cc(F)c([C@H]2[C@H](NC(=O)c3ccc(OC(F)F)cc3)C(=O)N(c3cccc(C4CCN(C)CC4)n3)[C@H]2C)c(F)c1 [Example 523]
1.1 | 600 | COc1cc(CO)nc(N2C[C@@H](c3c(F)cc(OC)cc3F)[C@H](NC(=O)c3ccc(OC(F)(F)F)cc3)C2=O)c1 [Example 587]
0.8 | 68 | COc1cc(F)c([C@@H]2CN(c3c(C)ccn(C4CCNCC4)c3=O)C(=O)[C@H]2NC(=O)c2ccc(Cl)cc2)c(F)c1 [Example 506]
1.1 | 3 | COCCn1ccc(C)c(N2C[C@@H](c3c(F)cc(OC)cc3F)[C@H](NC(=O)c3ccc(Cl)cc3)C2=O)c1=O [Example 422]
4.4 | 0.9 | CCn1ccc(C)c(N2C[C@@H](c3ccc(OC)cc3)[C@H](NC(=O)c3ccc(OC(F)(F)F)cc3)C2=O)c1=O [Example 170]
1 | 1.3 | COc1cc(F)c([C@@H]2CN(c3c(C)ccn(C(F)(F)CO)c3=O)C(=O)[C@H]2NC(=O)c2ccc(OC(F)(F)F)cc2)c(F)c1 [Example 659]
1.7 | 1 | COc1ccc([C@@H]2CN(c3cccn(CC(OC)C(F)(F)F)c3=O)C(=O)[C@H]2NC(=O)c2ccc(OC(F)F)cc2)cc1 (some centres unmarked) [Example 416]
2.4 | 1 | COc1ccc([C@@H]2CN(c3cccn(CC(C)OC)c3=O)C(=O)[C@H]2NC(=O)c2ccc(OC(F)(F)F)cc2)c(F)c1 (some centres unmarked) [Example 395]
1.1 | 2 | COCCn1ncc(C)c(N2C[C@@H](c3c(F)cc(OC)cc3F)[C@H](NC(=O)c3ccc(OC(F)(F)F)cc3)C2=O)c1=O [Example 471]
3.8 | 2.2 | COc1cc(F)c([C@@H]2CN(c3cccn(CC(OC)C(F)(F)F)c3=O)C(=O)[C@H]2NC(=O)c2ccc(OC(F)(F)F)cc2)c(F)c1 (some centres unmarked) [Example 147]
4.1 | 3.4 | COc1cc(F)c([C@@H]2CN(c3cccn(CC(OC)C(F)(F)F)c3=O)C(=O)[C@H]2NC(=O)c2ccc(OC(F)F)cc2)c(F)c1 (some centres unmarked) [Example 161]
3.4 | 340 | COc1cc(F)c([C@@H]2CN(c3cccn(CCO)c3=O)C(=O)[C@H]2NC(=O)c2ccc(Cl)cc2)c(F)c1 [Example 130]
1.9 | 1600 | COc1cc(F)c([C@@H]2CN(c3nc(C4CCN(CCO)CC4)ccc3F)C(=O)[C@H]2NC(=O)c2ccc(OC(F)F)cc2)c(F)c1 [Example 590]
